According to publication PMC12291464, “Modifying Antifungal Peptides as Safe Food Preservatives” (Journal of Agricultural and Food Chemistry, 2025):
Converted amounts (≈) assume the structure as drawn. “Also recorded” adds a separate entry of the source. Where two headings read alike, the source gives them in different places. Residues, ends and D or L forms follow the SMILES beside them.

Columns and labels:
E. coli = tested on: E. coli
Protocol: (§1) A1163 was grown on potato dextrose agar (PDA) medium at 37 °C for 5 days, and then the conidia were scraped and suspended in PBS with 0.025% (v/v) Tween 20, counted using a hemocytometer, and kept at 4 °C. isolated from peanuts and Pe21 (both kindly provided by Dr. Edward Sionov, ARO, Israel) were grown on PDA medium at 25 °C for 5 days, and then the conidia were scraped and suspended in PBS with 0.025% Tween 20 and kept at 4 °C. RP and methicillin-resistant (MRSA) were grown on LB agar plates, and individual colonies were picked and grown in Mueller–Hinton (MH) broth overnight at 37 °C. was grown on PDA medium at 30 °C, and individual colonies were picked and grown in yeast extract peptone dextrose (YPD) media overnight at 30 °C. All fungal and bacteria strains were maintained at −80 °C in 50% (v/v) glycerol stock.
(§2) For filamentous fungi strains, serial dilutions of 100 μL ranged from 100 to 0.78 μM for each peptide in a 96 well plate using RPMI1640 with 165 μM MOPS. A total of 80 μL of inoculum was suspended with a conidia load of 5 × 10^3 CFU/mL (final density of 2 × 10^3 CFU/mL), and 20 μL of resazurin was diluted in RPMI1640 solution of 0.02% [final concentration of 0.0002% (w/v)]. In the control, 100 μL of treatment was replaced by the same volume with medium, while the negative control was 180 μL of the medium and 20 μL of resazurin solution. Plates were incubated at 37 °C for and 25 °C for and for 24 h. The results were quantified by measuring absorbance at 570 nm with a microplate reader (Tecan). The mean absorbance values were used in subsequent calculations. The growth of resazurin reduction and growth inhibition was calculated using the following normalization: % growth=100−% reduction=abs of test agent−abs of untreated control/abs of reduced resazurin−abs of untreated control The MIC was defined as the lowest concentration of the peptide that inhibited fungal growth by 90%, allowing for only 10% of the normal growth. For bacterial and yeast strains studies, serial dilutions of 100 μL ranged from 100 to 0.78 μM for each peptide in a 96 well plate using MH media for bacteria and YPD for yeast. A total of 100 μL of the microbe in suitable media (5 × 10^5 CFU/mL) was inoculated in each well. In the untreated well (e.g., control), 100 μL of treatment was replaced by the same volume with medium, while in the negative control, media were only without microbes and peptides. After 24 h of incubation at 37 °C for bacteria and 30 °C for yeast, plates were read at 595 nm and MIC was defined as the lowest concentration of peptide that reduced the growth of the microbe to 10% growth.

A. Niger = details: 24 h
Protocol: as §1, §2

A. fumigatus = details: 24 h
Protocol: as §1, §2

P. expansum = details: 24 h
Protocol: as §1, §2

MRSA = tested on: MRSA
Protocol: as §1, §2

chymotrypsin = chymotrypsin (Bos taurus, UniProt P00766); assay: Digestion examination of the peptides by chymotrypsin
Protocol: Peptides were dissolved in 1 mL of 100 μM NH4HCO3 to a final concentration of 4 mM, followed by the addition of 1 μL chymotrypsin (1 mg/mL), and were incubated at 37 °C and 150 rpm. At each time point, 75 μL of the solution was transferred to 90 °C for inactivation of the enzyme. After the peptides were frozen in liquid nitrogen and lyophilized, they were dissolved in DMSO and were analyzed in HPLC using Analytic Phenomenex Luna C18 (5 μm, 4.6 × 250 mm) with standard RP-HPLC conditions. The area under curve (AUC) was calculated at each time point and normalized to time = 0.
4 Peptide’s secondary structure and digestibility. (A) CD spectra of the peptides (50 μM) in DDW was measured using a J-1100 spectropolarimeter (Jasco), with the following parameters: wavelength range of 190–260 nm, bandwidth of 1 nm, data pitch of 0.1 nm, and three accumulations. A baseline spectrum was recorded using a 0.1 cm quartz cuvette filled with DDW and subtracted from the peptide spectrum to obtain the corrected CD spectrum. […] The area under the curve (AUC) was calculated at each time point and normalized to t = 0. The y axis ranges from 100%, meaning not digested at all, to 0%, meaning fully digested.

HEK cells = assay: Toxicity assay on the human cell line (MTT); assay type: cell-based; details: 100 to 0.78 μM peptide, 24 h, read at 595 nm, normalized to untreated cells; 3 biological repeats in triplicates
Protocol: HEK cells were grown at 37 °C with 5% CO2 in Deulbecco’s modifield Eagle’s medium (DMEM, Sigma) with 2 mM L-glutamine, 1% (v/v) penicillin and streptomycin (Penstrep), and 20% (v/v) fetal bovine serum. The day before the experiment, cells were detached by gentle scraping, counted with a hemocytometer to a concentration of 10^6 cells/mL, and seeded into a 96-well microplate (Nunc, Thermo Scientific). The following day, serial dilutions from 100 to 0.78 μM for each peptide were introduced to the cells with DMEM lacking phenol red for 24 h. Later, 50 μL of 3-(4,5-dimethylthiazol-2-yl)-2,5-diphenyltetrazolium bromide (MTT, 0.5 mg/mL) was added to the wells for 2 h of incubation. At the end, 100 μL of DMSO was added for 30 min at 37 °C and 200 rpm, and the plate was read at 595 nm and normalized to the untreated cells.
Peptide Concentration [µM] Peptide Concentration [µM]
Supplementary 3. Cytotoxicity examination. HEK cells were cultured in DMEM with L-glutamine, PenStrep, and fetal bovine serum at 37°C and 5% CO2. The day before the experiment, cells were detached, counted (10^6 cells/ml), and seeded into a 96-well plate. […] Cell viability was assessed using the MTT assay; after adding 50µl of MTT and incubating for 2 hours, 100µl DMSO was added for 30minutes at 37 °C, 200rpm. Next, absorbance was measured at 595nm and normalized to untreated controls. […]

[1] = tested on: filamentous fungi conidia (spores); assay: Fungicidal assay (CFU log reduction); assay type: cell-based; details: 8 μM H2O2
Protocol: A 10^4 CFU/mL conidia load was incubated in yeast extract (YE) medium at 37 °C for and 25 °C for and at 200 rpm for 4 h, and 100 μL was transferred to 900 μL of PBS with peptide (final conidia load = 10^3 CFU/mL). The negative control had no peptides, and for the positive control, we used H2O2 (final concentration of 8 μM). The treated conidia were incubated for an additional 4 h at the same temperature at 200 rpm. Once the second incubation was over, the inoculum suspension was diluted, and 100 μL of both the original and the dilution was spread on Petri plates with PDA with tetracycline (10 μg/mL) and chloramphenicol (25 μg/mL) medium to exclude the growth of bacteria. The plates were incubated at matching temperatures depending on the strain. After 48 h, the CFU/mL was calculated; CFU/mL = number of counted CFU × 10^–n (n = serial dilution).
2 Fungicidal activity of BP100 and P-113 and their derivatives. Spores were counted using a hemocytometer and diluted to […]. After 4 h of incubation with the selected peptides in two different concentrations (25 and 100 μM), samples were diluted and both original and diluted samples were plated. Colonies were counted after 48 h of incubation and are presented as the log reduction of CFU/mL. […] The experiments were repeated 3 times (biological repeats) in triplicate (average ± SEM). […]

[2] = MH media, 5 × 10^5 CFU/mL, 24 h at 37 °C, read at 595 nm, MIC = growth reduced to 10%, average ± SE, 3 biological repeats in triplicates
[3] = RPMI1640 with MOPS, resazurin, absorbance 570 nm, MIC = lowest concentration inhibiting growth by 90%, average ± SE, 3 biological repeats in triplicates

SMILES	MIC Values, E. coli (E. coli; [2]) [µM]	MIC Values, A. Niger (A. Niger; [3]) [µM]	MIC Values, A. fumigatus (A. fumigatus; [3]) [µM]	MIC Values, P. expansum (P. expansum; [3]) [µM]	MIC Values, MRSA (MRSA; [2]) [µM]	digestion by chymotrypsin (chymotrypsin)	cytotoxicity against HEK mammalian cells (MTT assay) (HEK cells)	fungicidal activity, positive control [1]	MIC Values, E. coli (E. coli; 24 h) [µM]	MIC Values, A. Niger (A. Niger) [µM]	MIC Values, A. fumigatus (A. fumigatus) [µM]	MIC Values, P. expansum (P. expansum) [µM]	MIC Values, MRSA (MRSA; 24 h) [µM]	digestion by chymotrypsin (chymotrypsin; peptide 4 mM in 100 μM NH4HCO3, 1 μL chymotrypsin (1 mg/mL), 37 °C, 150 rpm, analytical RP-HPLC C18, AUC normalized to t = 0)
CC[C@H](C)[C@H](NC(=O)[C@H](CCCCN)NC(=O)[C@H](CCCCN)NC(=O)[C@H](Cc1ccccc1)NC(=O)[C@H](CC(C)C)NC(=O)[C@H](CCCCN)NC(=O)[C@@H](N)Cc1c[nH]c2ccccc12)C(=O)N[C@@H](CC(C)C)C(=O)N[C@@H](CCCCN)C(=O)N[C@@H](Cc1ccc(O)cc1)C(=O)N[C@@H](CC(C)C)C(N)=O [BP100 K1W]	2 ± 0 (≈ 2.96 µg/mL)	10 ± 2 (≈ 14.8 µg/mL)	8 ± 2 (≈ 11.8 µg/mL)	6 ± 0 (≈ 8.87 µg/mL)	3 ± 0 (≈ 4.44 µg/mL)	fully degraded within a short time frame	low to no cytotoxicity							
CC[C@H](C)[C@H](NC(=O)[C@H](CCCCN)NC(=O)[C@H](CCCCN)NC(=O)[C@H](Cc1ccccc1)NC(=O)[C@H](CC(C)C)NC(=O)[C@H](CCCCN)NC(=O)[C@H](CCCCN)NC(=O)[C@H](CC(C)C)NC(=O)[C@H](Cc1ccc(O)cc1)NC(=O)[C@H](CCCCN)NC(=O)[C@H](CC(C)C)NC(=O)[C@@H](NC(=O)[C@H](CCCCN)NC(=O)[C@H](CCCCN)NC(=O)[C@H](Cc1ccccc1)NC(=O)[C@H](CC(C)C)NC(=O)[C@H](CCCCN)NC(=O)[C@H](CCCCN)NC(=O)[C@H](CC(C)C)NC(=O)[C@H](Cc1ccc(O)cc1)NC(=O)[C@H](CCCCN)NC(=O)[C@H](CC(C)C)NC(=O)[C@@H](NC(=O)[C@H](CCCCN)NC(=O)[C@H](CCCCN)NC(=O)[C@H](Cc1ccccc1)NC(=O)[C@H](CC(C)C)NC(=O)[C@H](CCCCN)NC(=O)[C@@H](N)CCCCN)[C@@H](C)CC)[C@@H](C)CC)C(=O)N[C@@H](CC(C)C)C(=O)N[C@@H](CCCCN)C(=O)N[C@@H](Cc1ccc(O)cc1)C(=O)N[C@@H](CC(C)C)C(N)=O [BP100 Triple] (H-KKLFKKILKYLKKLFKKILKYLKKLFKKILKYL-NH2)	>200	>200	42 ± 8.3 (≈ 178 µg/mL)	83 ± 17 (≈ 351 µg/mL)	>200	less prone for digestions; also recorded: not digested								
OO [H2O2]								completely eradicated						
C[C@H](N)C(=O)N[C@@H](CCCCN)C(=O)N[C@@H](CCCNC(=N)N)C(=O)N[C@@H](Cc1c[nH]cn1)C(=O)N[C@@H](Cc1c[nH]cn1)C(=O)NCC(=O)N[C@@H](Cc1ccc(O)cc1)C(=O)N[C@@H](CCCCN)C(=O)N[C@@H](CCCNC(=N)N)C(=O)N[C@@H](CCCCN)C(=O)N[C@@H](Cc1ccccc1)C(=O)N[C@@H](Cc1c[nH]cn1)C(=O)N[C@@H](C)C(=O)N[C@@H](CCCCN)C(=O)N[C@@H](CCCNC(=N)N)C(=O)N[C@@H](Cc1c[nH]cn1)C(=O)N[C@@H](Cc1c[nH]cn1)C(=O)NCC(=O)N[C@@H](Cc1ccc(O)cc1)C(=O)N[C@@H](CCCCN)C(=O)N[C@@H](CCCNC(=N)N)C(=O)N[C@@H](CCCCN)C(=O)N[C@@H](Cc1ccccc1)C(=O)N[C@@H](Cc1c[nH]cn1)C(=O)N[C@@H](C)C(=O)N[C@@H](CCCCN)C(=O)N[C@@H](CCCNC(=N)N)C(=O)N[C@@H](Cc1c[nH]cn1)C(=O)N[C@@H](Cc1c[nH]cn1)C(=O)NCC(=O)N[C@@H](Cc1ccc(O)cc1)C(=O)N[C@@H](CCCCN)C(=O)N[C@@H](CCCNC(=N)N)C(=O)N[C@@H](CCCCN)C(=O)N[C@@H](Cc1ccccc1)C(=O)N[C@@H](Cc1c[nH]cn1)C(N)=O [P-113 Triple] (H-AKRHHGYKRKFHAKRHHGYKRKFHAKRHHGYKRKFH-NH2)							low to no cytotoxicity		42 ± 14 (≈ 196 µg/mL)	16 ± 4 (≈ 74.5 µg/mL)	5 ± 2 (≈ 23.3 µg/mL)	5 ± 2 (≈ 23.3 µg/mL)	25 ± 0 (≈ 116 µg/mL)	fully degraded within a short time frame
